Key:
NF-κB = assay: Western Blotting, NF-κB level; type: cell-based; conditions: human liver cancer cells, Lewis lung cancer cells and other cancer cell lines and tumor tissues, read-out: Effective concentration (IC50) for inhibition of NF-κB
Source text: (§1) Antibodies: primary antibodies of VEGFR, EGFR, c-Met, K-Ras, H-Ras, Akt, NF-κB, Cyclin D1, ER-alpha, Dvl-1, Dvl-2, Dvl-3, MMP-9, MMP2, β-catenin, Bcl-2, Bax, p53, p21, E-cadherin and Caspase3 protein, purchased from American Cell Signaling Technology Company and Santa Cruz Technology Company; and H3 acetylation, H4 acetylation and HDAC (HDAC3, HDAC4 and the like) Antibody Sample Kits, purchased from Cell Signaling Technology Company of the U.S.
(§2) (3) polyacrylamide gel electrophoresis (SDS-PAGE): an equal amount of protein lysate sample was used to separate protein, film transfer, and blocking, treated with appropriate primary antibodies and secondary antibodies in sequence, and the film was washed, then the color was developed with ECL kit, and a blot protein band was detected by exposure of an X-ray film; and a Gel-Pro Analyzer was used for quantitative analysis of gray degree, optical density value of the control group and the drug treatment group in various concentration were respectively compared with that of internal reference, the obtained ratios were respectively compared with the control group, and the protein expression level was semi-quantified.

[1] = system: highly metastatic Lewis lung cancer cell lines; assay: MTT growth inhibition, LLC cells; type: cell-based, mouse; conditions: Mus musculus, Lewis lung carcinoma, 72 h after treatment, read-out: Drug concentration (IC50) at which 50% cancer cells survived
Source text: (§3) Cell lines and cell culture: human lung cancer cells A549 and H460, human breast cancer cells MCF-7 and MDA-MB-231, human gastric cancer cells BGC-823, human prostate cancer cells PC-3, human chronic leukemia cells K562, human lymphoma cells U937, human liver cancer cells SMMC7721 and HepG2, human colon cancer cells HT29, human pancreatic cancer cells PANC-1 and BxPC3, human cervical cancer Hela cell lines, human brain tumor cells Daoy, human neuroma cells D54 and human oral epidermoid cancer cells KBV200 line with strong drug resistance, mouse melanoma cells B16, and highly metastatic Lewis lung cancer cell lines were purchased from American Type Culture Collection of the U.S. These cells were cultured with DMEM and RPMI-1640 culture solutions separately.
(§4) The procedure was as follows:
(§5) (1) 0.25% trypsin was used to digest cancer cells in a logarithmic growth phase to prepare a single-cell suspension, the concentration of cells was adjusted to 5×10^4/mL, and the adjusted suspension was inoculated into a 96-well culture plate with 100 μl per well;
(§6) (2) The culture plate was transferred into a 37° C. incubator with a saturated humidity and 5% of CO2 and cultured for 24 h; the compounds and the intermediates thereof obtained in embodiments 1-7 and the compound as represented by formula (IIIa) or the positive control anti-cancer drug with the concentration of 1-1000 μM/L were added to enable the final concentration to be 0.1-1500 μM/L. Control wells (only added with 200 μl of cell suspension) and drug-free blank control wells (containing the solvent of 0.01% DMSO) were set, each group included 8 wells, and the plate was placed into the 37° C. incubator with saturated humidity and 5% of CO2 for culturing;
(§7) (3) The 96-well plate was taken out at 48 h and 72 h after dosing, the original culture medium was carefully removed by suction, 100 μl of serum-free DMEM culture medium and 10 μl of MTT (5 mg/mL) solution were added in each well. The plate was continuously cultured for another 4 h and then the culture was terminated;
(§8) (4) The supernatant in the wells was carefully removed by suction, each well was added with 150 μl of DMSO and shaked at room temperature for 10-15 min to fully dissolve crystals.
(§9) (5) Colorimetric analysis: the wavelength was selected as 570 nm, the light absorbance (A value) of each well was determined on the microplate reader and the results were recorded; the experiment was repeated for three times;
(§10) (6) the experimental results were calculated according to the following formula: relative survival rate=(A value of each experimental group/A value of cell control group)×100%
(§11) Calculation of median-effect concentration (IC50, namely the drug concentration at which the inhibition rate is 50%, also known as half inhibitory concentration):
(§12) IC50 of the detected component was calculated by using a regression equation.

EGFR = assay: Western Blotting, EGFR level; type: cell-based; conditions: human liver cancer cells, Lewis lung cancer cells and other cancer cell lines and tumor tissues, read-out: Effective concentration (IC50) for inhibition of EGFR
Source text: as §1, §2

[2] = Fluorescent imaging in vivo and in vitro; type: physicochemical; conditions: 60 mg/kg body weight/0.2 ml
Description: Fluorescent images and wavelength ranges of the compounds as obtained in embodiments 1-7 were determined according to the literature method (Chen Y, et al., 2-(3-{1-Carboxy-5-[(6-[18F]fluoro-pyridine-3-carbonyl)-amino]-pentyl}-ureido)-pentanedioic acid, [18F]DCFPyL, a PSMA-based PET imaging agent for prostate cancer. Clin Cancer Res, 2011, 17(24):7645-53), and the results were shown in Table 3 and FIG. 1.
2. Experimental procedure: For in-vitro fluorescent imaging and detection: the compounds Ia-Ih as obtained in embodiments 1-7 were prepared in 1.5 ml plastic centrifugal tubes into a solution with the concentration of 60 mg/0.2 ml, fluorescent signals and images were respectively detected and recorded with a multifunctional microplate reader and an animal in-vivo imaging instrument under the following excitation and emission wavelength conditions, and the obtained results were shown in Table 3 and FIG. 1 (small test tube photos); and for the detection of fluorescent images in-vivo: after 16 h of fasting treatment of the experimental animals (while drinking water was normally supplied), solutions of the compounds Ia-Ih as obtained in embodiments 1-7 were prepared according to a concentration of 60 mg/kg body weight/0.2 ml, and intraperitoneally administered to the animal, the fluorescent images were detected and recorded with the animal in-vivo imaging instrument under the following excitation and emission wavelength conditions, the obtained results were shown in FIG. 1 (animal in-vivo imaged photos); wherein, the experimental excitation wavelength range was 360 nm-590 nm; and the detection wavelength range was 410 nm-700 nm.

HDAC4 = HDAC4 enzyme activity in nuclear extracts of human tumor xenografts of treated mice; conditions: second value of the pair HDAC3 and HDAC4, SAHA 25 mg/kg
Description: For the detection of the effect of the drugs on enzyme activity of EZH2 and HDAC of in-vivo tumors, the tumors were separately excised after 6 h of medication, total proteins and nucleoproteins were extracted separately to detect and analyze the activity of the enzyme.
(2) 50 μl of diluted sample solution was added into each reaction well, the plate was sealed with a plate-sealing film and reacted at room temperature for 30 min;
(3) the plate-sealing film was carefully peeled off, the liquid was removed, dried, 150 μl of washing liquid was added into each well, stood for 30 s, then the liquid was removed, repeated twice, and dried;
(4) 2 μl of HDAC enzyme or tumor tissue nuclear extracts was respectively uniformly mixed with 28 μl of diluted sample solution, added into the wells, the plate was sealed with the plate-sealing film and reacted at 37° C. for 60 min;
(5) the plate was washed for three times, wherein the operation was the same as that in (3); and a diluted antibody capture working solution was added into each reaction well according to 50 μl/well and reacted on a shaking bed at room temperature for 60 min;
(6) the plate was washed for four times, wherein the operation was the same as that in (3);
(7) a diluted antibody detection working solution was added into each reaction well according to 50 μl/well and reacted at room temperature for 30 min;
(8) the plate was washed for five times, wherein the operation was the same as that in (3);
a color developing agent was added according to 100 μl/well, and performed dark development for 2-10 min;
(9) 50 μl of stop solution was added into each well for stopping the reaction when the color in the well with a standard product turned blue with medium intensity, the color immediately turned yellow from blue after the addition;
(10) the light absorbance (OD value) of each well was measured in sequence at the wavelength of 450 nm; wherein the measurement should be performed within 15 min after addition of the stop solution; and

c-Met = assay: Western Blotting, c-Met level; type: cell-based; conditions: human liver cancer cells, Lewis lung cancer cells and other cancer cell lines and tumor tissues, read-out: Effective concentration (IC50) for inhibition of c-Met
Source text: as §1, §2

[3] = system: human brain tumor cells Daoy; assay: MTT growth inhibition, Daoy cells; type: cell-based; conditions: Homo sapiens, 72 h after treatment, read-out: Drug concentration (IC50) at which 50% cancer cells survived
Source text: as §3, §4, §5, §6, §7, §8, §9, §10, §11, §12

Akt = assay: Western Blotting, Akt level; type: cell-based; conditions: human liver cancer cells, Lewis lung cancer cells and other cancer cell lines and tumor tissues, read-out: Effective concentration (IC50) for inhibition of Akt
Source text: as §1, §2

[4] = system: human cervical cancer Hela cell lines; assay: MTT growth inhibition, Hela cells; type: cell-based; conditions: Homo sapiens, 72 h after treatment, read-out: Drug concentration (IC50) at which 50% cancer cells survived
Source text: as §3, §4, §5, §6, §7, §8, §9, §10, §11, §12

Structure (SMILES) | IC50 (NF-κB) [µM] | IC50 [1] [µM] | IC50 (EGFR) [µM] | Emission (fluorescent wavelength range detectable in vivo and in vitro) [2] | Excitation (fluorescent wavelength range detectable in vivo and in vitro) [2] | decrease of HDAC4 enzyme activity/inhibition rate (HDAC4; A549 tumor grown in vivo) | decrease of HDAC4 enzyme activity/inhibition rate (HDAC4; MCF7 tumor grown in vivo) | decrease of HDAC4 enzyme activity/inhibition rate (HDAC4; MDA-MB231 tumor grown in vivo) | decrease of HDAC4 enzyme activity/inhibition rate (HDAC4; SMMC7721 tumor grown in vivo) | IC50 (c-Met) [µM] | IC50 [3] [µM] | IC50 (Akt) [µM] | IC50 [4] [µM]
CCNC(=O)CCC(NC(=O)c1cc2cc(F)ccc2oc1=O)C(=O)OCC (stereo in doubt) [Compound Ie, (R)-2-(6-F-2-oxo-2H-benzopyran-3-carboxamido)-5-ethylamino-5-oxo-pentanoic acid ethyl ester] | < 60 | 110 | < 110 | 430-650 nm | 360-610 nm | 72%*(A549)- | 67%*(MCF7) | 62%*(MDA-MB231) | 65%*(SMMC7721); | < 145 | 210 | < 160 | 71
CCNC(=O)CCC(NC(=O)c1cc2cc([N+](=O)[O-])ccc2oc1=O)C(=O)OCC (stereo in doubt) [Compound If, (R)-2-(6-nitro-2-oxo-2H-benzopyran-3-carboxamido)-5-ethylamino-5-oxo-pentanoic acid ethyl ester] | < 60 | 100 | < 100 | 430-650 nm | 360-610 nm | 75%*(A549)- | 69%*(MCF7) | 67%*(MDA-MB231) | 68%*(SMMC7721); | < 141 | 129 | < 90 | 71
CCNC(=O)CC[C@H](N)C(=O)OC [Compound IIa, theanine methyl ester] |  | 100 |  |  |  |  |  |  |  |  | 400 |  | 330
CCNC(=O)CC[C@H](N)C(=O)OCC [Compound IIb, theanine ethyl ester] |  | 300 |  |  |  |  |  |  |  |  | 400 |  | 500
CCNC(=O)CCC(NC(=O)c1cc2ccccc2oc1=O)C(=O)OC (stereo not shown) [Compound Ia, methyl 5-ethylamino-5-oxo-2-(2-oxo-2H-benzopyran-3-carboxamido)pentanoate] | < 125 | 185 | < 125 | 430-650 nm | 360-610 nm |  |  |  | 58%*(SMMC7721) | < 160 | 250 | < 125 | 64 ± 20
CCNC(=O)CCC(NC(=O)c1cc2ccccc2oc1=O)C(=O)OCC (stereo not shown) [Compound Ib, ethyl 5-ethylamino-5-oxo-2-(2-oxo-2H-benzopyran-3-carboxamido)pentanoate] | < 120 | 115 | < 120 | 430-650 nm | 360-610 nm | 62%*(A549)- |  |  | 61%*(SMMC-7721) | < 155 | 135 | < 120 | 53
CCNC(=O)CC[C@@H](NC(=O)c1cc2cc(Cl)ccc2oc1=O)C(=O)OCC [Compound Ic, (R)-2-(6-CI-2-oxo-2H-benzopyran-3-carboxamido)-5-ethylamino-5-oxo-pentanoic acid ethyl ester] | < 100 | 131 | < 100 | 430-670 nm | 360-610 nm | 73%*(A549)- | 63%*(MCF7) | 65%*(MDA-MB231) | 67%*(SMMC-7721); |  | 86 | < 100 | 350
CCNC(=O)CC[C@@H](NC(=O)c1cc2cc(Br)ccc2oc1=O)C(=O)OCC [Compound Id, (R)-2-(6-Br-2-oxo-2H-benzopyran-3-carboxamido)-5-ethylamino-5-oxo-pentanoic acid ethyl ester] | < 80 | 116 | < 100 | 430-670 nm | 36-610 nm | 73%*(A549)- | 63%*(MCF7) | 65%*(MDA-MB231) | 67%*(SMMC7721); | < 150 | 128 | < 100 | 75
CCNC(=O)CC[C@@H](NC(=O)c1cc2cc(Cl)cc(Cl)c2oc1=O)C(=O)OCC [Compound Ig, (R)-2-(6,8-dichloro-2-oxo-2H-benzopyran-3-carboxamido)-5-ethylamino-5-oxo-pentanoic ethyl ester] | < 100 | 36 | < 100 | 430-690 nm | 360-610 nm | 63%*(A549)- | 68%*(MCF7) | 66%*(MDA-MB231) | 64%*(SMMC7721); | < 150 | 110 | < 70 | 66

— patent US9518038B2, “Condensation product of theanine derivative and carboxylic acid coumarin derivative, its intermediate, preparation method and use thereof” (SHANDONG YINGDONG YINGHAO BIOTECHNOLOGY, INC., priority 2012, dated 2016)
